Measurements: US20120004214A1 (priority 2009, published 2012)

Target: α7-subtype of nicotinic receptors (Rattus norvegicus, UniProt Q05941)
Assay: biochemical
Type: binding

Sequence of α7-subtype of nicotinic receptors (Q05941 23-502): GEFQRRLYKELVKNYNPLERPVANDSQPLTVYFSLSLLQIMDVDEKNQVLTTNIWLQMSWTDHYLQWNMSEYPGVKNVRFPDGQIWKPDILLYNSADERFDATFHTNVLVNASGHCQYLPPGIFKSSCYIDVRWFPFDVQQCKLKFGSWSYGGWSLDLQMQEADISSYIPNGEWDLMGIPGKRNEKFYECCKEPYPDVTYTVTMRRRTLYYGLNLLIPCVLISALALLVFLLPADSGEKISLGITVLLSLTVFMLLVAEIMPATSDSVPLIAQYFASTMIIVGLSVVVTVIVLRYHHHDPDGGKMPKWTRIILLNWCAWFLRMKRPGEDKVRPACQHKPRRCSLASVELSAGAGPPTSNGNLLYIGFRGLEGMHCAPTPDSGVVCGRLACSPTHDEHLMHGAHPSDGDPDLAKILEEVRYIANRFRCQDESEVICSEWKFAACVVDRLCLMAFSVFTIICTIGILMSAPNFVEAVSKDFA

In the case of `[O-][N+]12CCC(CC1)N(c1ncc(-c3ccc4[nH]ccc4c3)cn1)CC2` [Compound 1, 4-[5-(1H-Indol-5-yl)-pyrimidin-2-yl]-1,4-diaza-bicyclo[3.2.2]nonane 1-oxide], the IC50 is reported as less than 40 nM.
